Measured values from patent US20230242473A1, “THYROMIMETICS” (Autobahn Therapeutics, Inc., priority 2020, published 2023).

Biological target: T1, recombinant human FAAH (rhFAAH) (Homo sapiens, UniProt O00519)
T1 construct: purchased Cayman Chemical (Ann Arbor, Mich., USA)
T1 sequence (O00519 1-579): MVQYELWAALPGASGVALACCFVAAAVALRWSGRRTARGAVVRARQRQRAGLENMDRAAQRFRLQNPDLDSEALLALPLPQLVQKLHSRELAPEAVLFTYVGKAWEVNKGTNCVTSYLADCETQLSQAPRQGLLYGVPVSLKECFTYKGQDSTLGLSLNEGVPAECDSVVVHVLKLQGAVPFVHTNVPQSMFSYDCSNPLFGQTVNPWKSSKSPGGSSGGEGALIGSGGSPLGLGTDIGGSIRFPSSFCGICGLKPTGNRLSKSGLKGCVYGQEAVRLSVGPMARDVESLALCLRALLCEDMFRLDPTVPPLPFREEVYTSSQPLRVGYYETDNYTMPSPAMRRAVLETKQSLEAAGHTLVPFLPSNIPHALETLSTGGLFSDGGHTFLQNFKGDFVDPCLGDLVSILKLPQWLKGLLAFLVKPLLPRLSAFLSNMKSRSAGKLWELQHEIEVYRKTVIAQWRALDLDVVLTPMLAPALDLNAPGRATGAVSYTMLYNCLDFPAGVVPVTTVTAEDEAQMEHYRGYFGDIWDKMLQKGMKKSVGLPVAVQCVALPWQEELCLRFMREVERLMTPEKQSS
Assay: FAAH substrate evaluation (formation of acid metabolite, LC-MS/MS)
Type: in vitro ADME
Conditions: 0.5 ng/μL rhFAAH, 1 μM test compound, pH 8.0, room temperature, 0-60 minutes
Experimental: Purified recombinant human FAAH (rhFAAH) was purchased from Cayman Chemical (Ann Arbor, Mich., USA). The total volume for each incubation was 400 μL containing a final 0.5 ng/μL rhFAAH, 1 μM test compound, 1.25% ethanol or 1 μM PF-3845 (FAAH inhibitor), and 0.1% bovine serum albumin in Tris-EDTA buffer at pH 8.0). The positive control was LL-341001. The incubation was conducted at the room temperature. At 0, 5, 15, 30 and 60 minutes, an aliquot of 30 μL reaction mixtures was removed and mixed with 300 μL acetonitrile containing 5 ng/mL terfenadine and 10 ng/mL tolbutamide as internal standards to quench the reaction. The resulting mixture was centrifuged at 4000 rpm, 4° C. for 15 minutes, and 100 μL supernatant was ready for LC-MS/MS analysis to measure the formation of acid metabolite.
Acquity Ultra Performance LC system from Waters was used for sample analysis. The chromatography was performed on a reverse phase Kinetex 2.6 μm C18 column, 2.1×30 mm, 100 Å. The mobile phase A comprised of 0.10% formic acid in water and mobile phase B comprised of 0.1% formic acid in acetonitrile with a 2-min run time at the flow rate of 0.8 mL/min for the acid metabolite from positive control or a 1.5 min run time at the flow rate of 0.9 mL/min for the acid metabolite of test compounds. The mass spectrometer (API-5500 and API Q Trap 4000 Applied Biosystems/MDS SCIEX Instruments, Framingham, Mass., USA) was operated under ESI positive or negative ion MRM mode.
The formation of acid metabolite was monitored and quantified using one calibration point of 1 μM. The observed rate constant (ke) for the acid metabolite formation was calculated by plotting the metabolite concentration versus time of incubation with the slope being ke and is shown in Table 4.

Compound	ke, observed rate constant for the acid metabolite formation
CNC(=O)COc1cc(Cl)c(Cc2ccc(O)c(C(C)C)c2F)cc1F [Compound 39, 2-(5-chloro-2-fluoro-4-(2-fluoro-4-hydroxy-3-isopropylbenzyl)phenoxy)-N-methylacetamide]	A (A = ke is less than 2.0 and more than or equal to 0.05)
C=C(C)c1cc(OCC(=O)NC)ccc1Cc1ccc(O)c(C(C)C)c1F [Compound 41, 2-(4-(2-fluoro-4-hydroxy-3-isopropylbenzyl)-3-(prop-1-en-2-yl)phenoxy)-N-methylacetamide]	A (A = ke is less than 2.0 and more than or equal to 0.05)
CNC(=O)COc1ccc(Cc2ccc(O)c(C(C)C)c2F)c(C(C)C)c1 [Compound 43, 2-(4-(2-fluoro-4-hydroxy-3-isopropylbenzyl)-3-isopropylphenoxy)-N-methylacetamide]	A (A = ke is less than 2.0 and more than or equal to 0.05)
CNC(=O)COc1cc(C(C)C)c(Cc2ccc(O)c(C(C)C)c2)cc1F [Compound 47, 2-(2-fluoro-4-(4-hydroxy-3-isopropylbenzyl)-5-isopropylphenoxy)-N-methylacetamide]	A (A = ke is less than 2.0 and more than or equal to 0.05)
CC(C)c1cc(Cc2cc(F)c(OCC(=O)N(C)C)cc2C(C)C)ccc1O [Compound 48, 2-(2-fluoro-4-(4-hydroxy-3-isopropylbenzyl)-5-isopropylphenoxy)-N,N-dimethylacetamide]	A (A = ke is less than 2.0 and more than or equal to 0.05)
